Experimental data from BindingDB's records for doi:10.1021/jm9905054 (Eisai, 2000).
Structures can show the parent of a compound that is named as a salt.

Test: 50% inhibitory concentration against phosphodiesterase 5 (PDE5) from porcine platelets

Structure (SMILES) | IC50 [nM]
COc1ccc(CNc2nnc(N3CCC(C(=O)O)CC3)c3ccc(C#N)cc23)cc1Cl [1-[4-(3-Chloro-4-methoxy-benzylamino)-6-cyano-phthalazin-1-yl]-piperidine-4-carboxylic acid; hydrochloride] | 3.1
COc1ccc(CNc2nnc(N3CCC(O)CC3)c3ccc([N+](=O)[O-])cc23)cc1Cl [1-[4-(3-Chloro-4-methoxy-benzylamino)-6-nitro-phthalazin-1-yl]-piperidin-4-ol; hydrochloride] | 0.3
COc1ccc(CNc2nnc(N3CCC(O)CC3)c3cc(Cl)c(Cl)cc23)cc1Cl [1-[6,7-Dichloro-4-(3-chloro-4-methoxy-benzylamino)-phthalazin-1-yl]-piperidin-4-ol; hydrochloride] | 0.86
COc1ccc(CNc2nnc(N3CCC(O)CC3)c3ccc(Cl)cc23)cc1Cl [1-[6-Chloro-4-(3-chloro-4-methoxy-benzylamino)-phthalazin-1-yl]-piperidin-4-ol; hydrochloride] | 4.4
COc1ccc(CNc2nnc(N3CCCC(O)C3)c3ccc(C#N)cc23)cc1Cl (configuration not stated) [4-(3-Chloro-4-methoxy-benzylamino)-1-(3-hydroxy-piperidin-1-yl)-phthalazine-6-carbonitrile; hydrochloride] | 1.2
COc1ccc(CNc2nnc(N3CCC(C)(O)CC3)c3ccc(C#N)cc23)cc1Cl [4-(3-Chloro-4-methoxy-benzylamino)-1-(4-hydroxy-4-methyl-piperidin-1-yl)-phthalazine-6-carbonitrile; hydrochloride] | 0.7
COc1ccc(CNc2nnc(N[C@H]3CC[C@H](O)CC3)c3ccc(C#N)cc23)cc1Cl [4-(3-Chloro-4-methoxy-benzylamino)-1-(4-hydroxy-cyclohexylamino)-phthalazine-6-carbonitrile; hydrochloride] | 12
COc1ccc(CNc2nnc(N3CCC(=O)CC3)c3ccc(C#N)cc23)cc1Cl [4-(3-Chloro-4-methoxy-benzylamino)-1-(4-oxo-piperidin-1-yl)-phthalazine-6-carbonitrile; hydrochloride] | 0.53
COc1ccc(CNc2nnc(N3CCN(c4ccccn4)CC3)c3ccc(C#N)cc23)cc1Cl [4-(3-Chloro-4-methoxy-benzylamino)-1-(4-pyridin-2-yl-piperazin-1-yl)-phthalazine-6-carbonitrile; hydrochloride] | 11
COc1ccc(CNc2nnc(N3CCN(c4ncccn4)CC3)c3ccc(C#N)cc23)cc1Cl [4-(3-Chloro-4-methoxy-benzylamino)-1-(4-pyrimidin-2-yl-piperazin-1-yl)-phthalazine-6-carbonitrile; hydrochloride] | 19
COc1ccc(CNc2nnc(NCc3cccnc3)c3ccc(C#N)cc23)cc1Cl [4-(3-Chloro-4-methoxy-benzylamino)-1-[(pyridin-3-ylmethyl)-amino]-phthalazine-6-carbonitrile; hydrochloride] | 6.8
COc1ccc(CNc2nnc(N3CCCCC3)c3ccc(C#N)cc23)cc1Cl [4-(3-Chloro-4-methoxy-benzylamino)-1-piperidin-1-yl-phthalazine-6-carbonitrile; hydrochloride] | 0.55
COc1ccc(CNc2nnc(N3CCSCC3)c3ccc(C#N)cc23)cc1Cl [4-(3-Chloro-4-methoxy-benzylamino)-1-thiomorpholin-4-yl-phthalazine-6-carbonitrile; hydrochloride] | 0.32

The remaining compounds from weak to strong by IC50, led by results:

IC50 [nM] | Structure (SMILES)
600 | COc1ccc(CNc2nnc(N3CCC(O)CC3)c3ccc(C(=O)O)cc23)cc1Cl [4-(3-Chloro-4-methoxy-benzylamino)-1-(4-hydroxy-piperidin-1-yl)-phthalazine-6-carboxylic acid; hydrochloride]
14 | COc1ccc(CNc2nnc(N3CCC(NS(C)(=O)=O)CC3)c3ccc(C#N)cc23)cc1Cl [N-{1-[4-(3-Chloro-4-methoxy-benzylamino)-6-cyano-phthalazin-1-yl]-piperidin-4-yl}-methanesulfonamide; hydrochloride]
6.7 | COc1ccc(CNc2nnc(NCc3ccncc3)c3ccc(C#N)cc23)cc1Cl [4-(3-Chloro-4-methoxy-benzylamino)-1-[(pyridin-4-ylmethyl)-amino]-phthalazine-6-carbonitrile; hydrochloride]
3 | COc1ccc(CNc2nnc(Cl)c3ccc(C#N)cc23)cc1Cl
2.7 | COc1ccc(CNc2nnc(NCc3ccccn3)c3ccc(C#N)cc23)cc1Cl [4-(3-Chloro-4-methoxy-benzylamino)-1-[(pyridin-2-ylmethyl)-amino]-phthalazine-6-carbonitrile; hydrochloride]
2.6 | COc1ccc(CNc2nnc(NCCCO)c3ccc(C#N)cc23)cc1Cl [4-(3-Chloro-4-methoxy-benzylamino)-1-(3-hydroxy-propylamino)-phthalazine-6-carbonitrile; hydrochloride]
2 | COc1ccc(CNc2nnc(N3CCC(O)CC3)c3ccc(C(N)=O)cc23)cc1Cl [4-(3-Chloro-4-methoxy-benzylamino)-1-(4-hydroxy-piperidin-1-yl)-phthalazine-6-carboxylic acid amide; hydrochloride]
1.9 | COc1ccc(CNc2nnc(N3CC=CCC3)c3ccc(C#N)cc23)cc1Cl [4-(3-Chloro-4-methoxy-benzylamino)-1-(3,6-dihydro-2H-pyridin-1-yl)-phthalazine-6-carbonitrile; hydrochloride]
1.7 | COc1ccc(CNc2nnc(N3CCN(CCO)CC3)c3ccc(C#N)cc23)cc1Cl [4-(3-Chloro-4-methoxy-benzylamino)-1-[4-(2-hydroxy-ethyl)-piperazin-1-yl]-phthalazine-6-carbonitrile; hydrochloride]
1.5 | COc1ccc(CNc2nnc(-n3ccnc3)c3ccc(C#N)cc23)cc1Cl [4-(3-Chloro-4-methoxy-benzylamino)-1-imidazol-1-yl-phthalazine-6-carbonitrile; hydrochloride]
1.2 | COc1ccc(CNc2nnc(N3CCNCC3)c3ccc(C#N)cc23)cc1Cl [4-(3-Chloro-4-methoxy-benzylamino)-1-piperazin-1-yl-phthalazine-6-carbonitrile; hydrochloride]
1.1 | COc1ccc(CNc2nnc(N3CCC(OC)CC3)c3ccc(C#N)cc23)cc1Cl [4-(3-Chloro-4-methoxy-benzylamino)-1-(4-methoxy-piperidin-1-yl)-phthalazine-6-carbonitrile; hydrochloride]
0.95 | COc1ccc(CNc2nnc(N3CCN(C)CC3)c3ccc(C#N)cc23)cc1Cl [4-(3-Chloro-4-methoxy-benzylamino)-1-(4-methyl-piperazin-1-yl)-phthalazine-6-carbonitrile; hydrochloride]
0.93 | COc1ccc(CNc2nnc(N3CCC(CO)CC3)c3ccc(C#N)cc23)cc1Cl [4-(3-Chloro-4-methoxy-benzylamino)-1-(4-hydroxymethyl-piperidin-1-yl)-phthalazine-6-carbonitrile; hydrochloride]
0.79 | COc1ccc(CNc2nnc(N3CCS(=O)(=O)CC3)c3ccc(C#N)cc23)cc1Cl [4-(3-Chloro-4-methoxy-benzylamino)-1-(1,1-dioxo-1lambda*6*-thiomorpholin-4-yl)-phthalazine-6-carbonitrile; hydrochloride]
0.73 | COc1ccc(CNc2nnc(N3CCC(O)CC3)c3ccc(C(F)(F)F)cc23)cc1Cl [1-[4-(3-Chloro-4-methoxy-benzylamino)-6-trifluoromethyl-phthalazin-1-yl]-piperidin-4-ol; hydrochloride]
0.7 | COc1ccc(CNc2nnc(N3CC[S+]([O-])CC3)c3ccc(C#N)cc23)cc1Cl
0.7 | COc1ccc(CNc2nnc(N3CCC(CCO)CC3)c3ccc(C#N)cc23)cc1Cl [4-(3-Chloro-4-methoxy-benzylamino)-1-[4-(2-hydroxy-ethyl)-piperidin-1-yl]-phthalazine-6-carbonitrile; hydrochloride]
0.5 | COc1ccc(CNc2nnc(N3CCC(C(N)=O)CC3)c3ccc(C#N)cc23)cc1Cl [1-[4-(3-Chloro-4-methoxy-benzylamino)-6-cyano-phthalazin-1-yl]-piperidine-4-carboxylic acid amide; hydrochloride]
